Measurements: US9334498B2, “Methods and compositions for modulating MIR-204 activity” (UAB Research Foundation, priority 2012, dated 2016)
Oligonucleotides are written 5' to 3', each unit as a sugar letter and its base; * is a phosphorothioate linkage, no mark a phosphodiester; rarer units and linkages stand in square brackets, end groups in braces. Plain capitals give the bases only. {Chol} = cholesterol; m = 2'-O-methyl

How the values were obtained:
STAT3 = target: T1, STAT3 (Rattus norvegicus, UniProt P52631); test: STAT3 inhibition in INS-1 cells, expression by qRT-PCR; type: cell-based
T1 construct: endogenous in cells; host or cells: INS-1 rat beta cells
T1 sequence (P52631 whole entry): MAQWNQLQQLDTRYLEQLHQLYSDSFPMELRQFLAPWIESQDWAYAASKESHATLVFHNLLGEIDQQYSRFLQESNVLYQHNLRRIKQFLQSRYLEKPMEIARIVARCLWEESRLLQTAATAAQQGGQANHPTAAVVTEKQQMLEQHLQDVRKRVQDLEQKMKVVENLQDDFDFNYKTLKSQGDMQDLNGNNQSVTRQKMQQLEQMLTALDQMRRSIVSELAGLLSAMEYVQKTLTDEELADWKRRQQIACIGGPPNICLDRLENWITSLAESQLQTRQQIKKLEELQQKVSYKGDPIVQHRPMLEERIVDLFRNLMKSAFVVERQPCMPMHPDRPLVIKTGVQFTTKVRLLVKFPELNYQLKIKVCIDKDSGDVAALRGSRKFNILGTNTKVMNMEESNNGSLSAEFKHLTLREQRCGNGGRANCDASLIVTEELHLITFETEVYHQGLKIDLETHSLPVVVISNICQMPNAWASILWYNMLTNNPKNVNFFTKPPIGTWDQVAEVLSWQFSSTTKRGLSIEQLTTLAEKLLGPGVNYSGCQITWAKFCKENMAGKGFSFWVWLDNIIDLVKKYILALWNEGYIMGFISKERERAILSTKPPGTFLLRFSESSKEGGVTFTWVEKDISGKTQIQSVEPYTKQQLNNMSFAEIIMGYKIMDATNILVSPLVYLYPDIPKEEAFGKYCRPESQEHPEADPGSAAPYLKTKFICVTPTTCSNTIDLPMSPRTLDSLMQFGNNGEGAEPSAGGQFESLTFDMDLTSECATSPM
Method: FIG. 18. Effects of TXNIP and diabetes on beta cell miR-204 expression. Expression of miR-204 was assessed by qRT-PCR in (A) INS-1 cells overexpressing TXNIP (INS-TXNIP) and control (INS-LacZ) cells, (B) primary islets of TXNIP-deficient HcB-19 and C3H control mice, and (C) primary islets of beta-cell-specific TXNIP knockout bTKO and lox/lox control mice. (D) TXNIP effects on STAT3 activation were determined by immunoblotting for phospho-STAT3 (p-STAT3) and total STAT3 in INS-TXNIP and control INS-LacZ cells. (E) To determine the role of STAT3 in miR-204 expression, INS-1 cells were incubated with the STAT3 inhibitor STATTIC (2 μM for 48 hr) or vehicle (DMSO) and the expression of miR-204 was detected by qRT-PCR. (F) To assess the effect of diabetes on miR-204 expression, primary islets of 10-week old, male, diabetic ob/ob or lean control mice were analyzed by qRT-PCR. Bars represent means±SEM; n=3-5 independent experiments.
miR-204 is encoded within intron 6 of the TRPM3 gene (transient receptor potential melastatin 3, a cation-selective channel) and is transcribed in the same direction as TRPM3^30. Since miR-204 and TRPM3 are therefore sharing the same promoter, we deduced that, if TXNIP were to regulate miR-204 expression at the transcriptional level, TRPM3 would be co-regulated in parallel. […]

miR-204 = test: Antagomir pilot studies in vivo: islet miR-204 expression; design: species or system mouse; details: after just one injection
Method: miR-204 knock down (in vitro and in vivo). We will utilize the miR204 inhibitor oligo (IN-320505-05; meridian Hairpin Inhibitor rno-miR-204) or scrambled control (IN-001005-01-05) (Dharmacon) to perform transfection experiments in INS-1 cells and primary human islets as mentioned above and described herein. This microRNA inhibitor oligonucleotide specifically binds to miR-204 and targets it for degradation. In fact, 72 h after transfection we saw a significant ˜5-fold reduction in miR-204 expression, but no effect on other microRNAs (data not shown) confirming the effectiveness and specificity of this approach. […] Therefore, after diabetes has been confirmed by blood glucose readings over 250 mg/dL on two consecutive days, these obese and diabetic male mice and their lean, non-diabetic littermates will again be divided into three treatment groups and will receive antagomir, mutant antagomir or saline injections as described for the wild-type mice. In all mice, blood glucose levels will be assessed daily (by glucometer) and serum will be collected before injection and prior to sacrifice for measurement of insulin levels (by ELISA)(17). […]

Compound | TRPM3 (host gene) expression (STAT3) | miR-204 expression (STAT3; 2 μM for 48 hr vs DMSO) | reduction in islet miR-204 expression (miR-204) [fold]
O=[N+]([O-])c1ccc2c(c1)S(=O)(=O)C=C2 [STATTIC] | significantly induced | significantly induced | 
5′-mA(*)mG(*)mGmCmAmUmAmGmGmAmUmGmAmCmAmAmAmG mG(*)mG(*)mA(*) mA(*)-3Chl (antisense mA*mG*mGmCmAmUmAmGmGmAmUmGmAmCmAmAmAmGmG*mG*mA*mA*{Chol}) [miR-204 antagomir] |  |  | ~2
